The METLIN SMRT retention time set (Domingo-Almenara et al. 2019)

Test: gradient 5% acetonitrile 3 min, to 50% in 2 min, to 85% in 15 min, held 3 min, 100 µL/min
Settings: column: Zorbax Extend-C18 2.1 x 50 mm; eluents: water / acetonitrile, 0.1% formic acid
Procedure, shortened: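 Standards, all pure, were combined into mixtures of ~100 molecules and run at 100 μL/min on a Zorbax Extend-C18 column (2.1 × 50 mm, 1.8 μm) with water and acetonitrile, each containing 0.1% formic acid. A coupled quadrupole time-of-flight mass spectrometer operated in positive and negative ionization mode. Retention time values come from computationally picked adduct peaks, each inspected manually.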

Row | Compound | RP-LC retention time
1 | CCCCS(=O)(=O)N1CCC(n2c(-c3ccc(OC)cc3)nc3cccnc32)C1 (centres undefined) | 846 s
2 | COc1ccc(-c2noc(CN3CCN(c4ccccc4)CC3)n2)cc1OC | 846 s
3 | Cc1ccc(C(=O)N2CCC(C(=O)N3CCCCCCNC(=O)CC3)CC2)s1 | 668 s
4 | CCOc1ccccc1-c1nc(C2CC(=O)N(c3ccc(CC)cc3)C2)no1 (centres undefined) | 1130 s
5 | O=C(OCc1cccnc1)c1cn(-c2cccc(F)c2)c(=O)c2ccccc12 | 753 s
6 | COc1ccccc1OCCNC(=O)Cn1nc2c(cc1=O)CCCC2 | 704 s
7 | CN1CCN(c2cc(-c3nc(-c4ccc(Cl)cc4)no3)c3ccccc3n2)CC1 | 881 s
8 | COC(=O)c1c(-c2cccc(Cl)c2)noc1NCc1ccco1 | 1060 s
9 | COCCNc1ncc(C(=O)O)c(-c2cccc(C)c2)n1 | 700 s
10 | COc1ccc(SCCc2ccncc2)cc1 | 662 s
11 | COc1ccc(-c2noc(CN3N=NC4C(=O)N(c5ccc(C)c(Cl)c5)C(=O)C43)n2)c(OC)c1 (centres undefined) | 974 s
12 | CCN1CCN(Cc2nc3cc(NC(=O)C(C)C)ccc3n2C(C)C)CC1 | 563 s
13 | COc1cccc(-c2noc(CN3C(=O)COc4cc(Cl)ccc43)n2)c1 | 1090 s
14 | CCC(C(=O)NCCCOC)n1c2ccccc2c2cnn(C)c(=O)c21 (centres undefined) | 749 s
15 | Cc1ccc(CNC(=O)c2cn(-c3ccc(NC(=O)C4CC4)cn3)cn2)cc1 | 773 s
16 | Cc1ccc(-c2nnc(SCC(=O)Nc3cccc(Cl)c3C)o2)cc1 | 1020 s
17 | COC(=O)C1=CN(c2ccc(OC)c(Cl)c2)c2cc(F)ccc2S1(=O)=O | 914 s
18 | O=C(C1CC(=O)N(c2n[nH]c3cccc(F)c23)C1)N1CCN(c2ccc(F)cc2)CC1 (centres undefined) | 740 s
19 | CCOC(=O)c1noc2nc(C)nc(N3CCN(c4ccccc4)CC3)c12 | 643 s

Row | Compound | RP-LC retention time
20 | O=C(Nc1ccc2c(c1)OCCO2)N1CCC2(CC1)Nc1ccccc1-n1cccc12 | 934 s
21 | COc1cccc(CNC(=O)c2cc3ccncc3n2C)c1OC | 602 s
22 | CC1CCc2[nH]nc(C(=O)NCC3CCCO3)c2C1 (centres undefined) | 702 s
23 | Cn1nc(-c2nc(C3CC3)no2)c2c1CCN(C(=O)c1ccncc1)C2 | 628 s
24 | O=C(CN1C(=O)C(C(=O)N2CCCC2)Sc2ccccc21)NCCc1ccccc1 (centres undefined) | 898 s
25 | COc1cccc(N2CCN(C(=O)C3CCN(S(=O)(=O)c4cn(C)c(C)n4)CC3)CC2)c1 | 702 s
26 | CCCn1c(=O)c(N2CCN(C(=O)CC3CCCC3)CC2)nc2ccccc21 | 1130 s
27 | Cc1cc(CN2CCC(CNC(=O)c3ccc(S(=O)(=O)N(C)C)cc3)CC2)c(C)o1 | 574 s
28 | O=C(C1CCCO1)N1N=C(c2ccc(Br)cc2)CC1c1ccco1 (centres undefined) | 892 s
29 | CCOc1cc(S(=O)(=O)Nc2cccc3cn[nH]c23)ccc1Br | 804 s
30 | CC(Sc1nnnn1-c1ccccc1)C(=O)Nc1ccc(N2CCN(C)CC2)cc1 (centres undefined) | 580 s
31 | CCCCn1cc(S(=O)(=O)NCc2cccc(C)c2)c2cccnc21 | 1000 s
32 | CCCn1nnc(NCc2ccc(-c3cccc(Cl)c3)o2)n1 | 1090 s
33 | COc1ccc(OC)c(NC(=O)Cn2nc3c4ccc(Cl)cc4ncn3c2=O)c1 | 740 s
34 | O=C(Cn1cnc(-c2noc(-c3ccncc3)n2)c1)NCc1ccc(Cl)cc1 | 695 s
35 | O=C(NC1(c2nc(-c3cccnc3)no2)CCCCC1)c1nccc2ccccc12 | 1100 s
36 | Cc1ccsc1C(=O)N1CCCn2cc(-c3ccccc3)nc21 | 686 s
37 | Cc1ccc(-c2nnc(Cc3nc(-c4ccccc4F)no3)o2)cc1C | 1040 s
38 | Cc1cccc(NC(=O)c2ccc3nn(CC(=O)Nc4ccc(C)c(F)c4)c(=O)n3c2)c1 | 810 s

Row | Compound | RP-LC retention time
39 | CCc1cccc(NC(=O)Cn2nc(N3CCSCC3)c3ccccc3c2=O)c1 | 940 s
40 | CCCNC(=O)N1CCCCCC1CN1CCCC1 (centres undefined) | 580 s
41 | O=C(N1CCCC(c2nnnn2-c2ccccc2)C1)C1(c2ccccc2)CC1 (centres undefined) | 839 s
42 | Cc1cc2nn(CC(=O)Nc3ccc(Cl)cc3)c(=O)n2c(Nc2ccccc2)n1 | 1050 s
43 | COc1ccc(NC(=O)N2CCC(n3c(-c4ccco4)nc4cccnc43)C2)cc1F (centres undefined) | 690 s
44 | CN(C)c1nc2ncn3c(=O)n(CC(=O)NCc4ccc(F)cc4)nc3c2s1 | 675 s
45 | CC(CC(C#N)(c1ccccc1)c1ccccc1)N1CCCCC1 (centres undefined) | 780 s
46 | O=C(c1cccs1)N1CCCC(OCc2nc(C3CC3)no2)C1 (centres undefined) | 786 s
47 | O=C(CCc1c(-c2ccccc2)nc2ccccn12)NCc1cccc(Cl)c1 | 681 s
48 | CC1=C(c2ccccc2)S(=O)(=O)N=C1N1CCCN(C(=O)c2cccnc2)CC1 | 664 s
49 | NC(=O)[C@@H]1C[C@H](Oc2ccccc2)CN1C1CCC1 | 571 s
50 | Cc1ccc(S(=O)(=O)N2C[C@@H]3C[C@H](NC(=O)c4ccccc4)[C@H]2C3)cc1Cl | 969 s
51 | O=C(c1cc(-c2ccco2)on1)N1CCn2c1nc1ccccc12 | 621 s
52 | O=C(Cc1ccsc1)N1CCC[C@H]1c1nc(-c2ccccc2)n[nH]1 | 718 s
53 | CCC(C)NC(=O)N1CC(Oc2cccc(-c3nc(C)no3)c2)C1 (centres undefined) | 801 s
54 | CCOCCCN1C(=O)CN(C2CCCCCC2)C(=O)C1c1ccc(OCC)c(OC)c1 (centres undefined) | 925 s
55 | CCc1noc(NC(C)=O)c1-c1ccc(C)c(S(=O)(=O)N2CCCCCC2)c1 | 926 s
56 | Cc1cc(C)c(C(=O)N2CCC(CC(=O)NCCCN3CCN(C)CC3)CC2)[nH]1 | 566 s
57 | Cc1ccc(C(=O)Nc2ccc(N3CCN(C4CCCC4)C3=O)nc2)cc1N1CCCC1=O | 686 s

Next, values leading:

Row | RP-LC retention time | Compound
58 | 1210 s | CC(C)Oc1ccc(-c2noc(Cn3ncn4nc(-c5ccc(F)cc5)cc4c3=O)n2)cc1
59 | 796 s | CC(C)C(=O)Nc1ccc(-n2cnc(C(=O)NCc3ccc(Cl)cc3)c2)nc1
60 | 885 s | COc1ccc(-c2nc(-c3ccc(NS(C)(=O)=O)cc3)no2)c(OC)c1
61 | 1170 s | CC(C)c1ccc(N2C(=O)C3N=NN(Cc4nc(-c5cccc(Br)c5)no4)C3C2=O)cc1 (centres undefined)
62 | 573 s | COc1cccc(CN2CCn3c(nnc3[C@@H]3C[C@@H](O)CN3Cc3cccnc3)C2)c1OC
63 | 916 s | Cc1ccc(C(=O)N2CCC(COc3ccc(C(=O)NC(C)C)cc3)CC2)cc1C
64 | 748 s | Cc1ccc(CCCN2CCCC(COc3ccccc3C(=O)N3CCCCC3)C2)o1 (centres undefined)
65 | 673 s | CNC(=O)C1CCN(C(=O)Nc2ccc(NC(=O)Nc3ccc(C)cc3C)cc2)CC1
66 | 594 s | Cc1nn(C)c(C)c1CNC(=O)C1CC(=O)N(c2n[nH]c3cccc(F)c23)C1 (centres undefined)
67 | 837 s | CCCN1C(=O)c2cccnc2Sc2cc(C(=O)NC3CCCC3)ccc21
68 | 913 s | O=C(c1nnc(-c2csc(S(=O)(=O)N3CCN(c4ncccn4)CC3)c2)o1)N1CCCC1
69 | 670 s | Cc1ccc2oc(N3CCN(C(=O)c4ccc(-c5noc(C6CC6)n5)cc4)CC3)nc2n1
70 | 1040 s | Cc1cccc(-c2nnc(Cc3nc(-c4ccccc4)no3)o2)c1
71 | 706 s | O=C1Cc2cc(NC(=O)NC(c3ccccc3)c3ccccc3)ccc2N1
72 | 1260 s | COc1ccc(-c2noc(-c3nnn4c3COC(c3ccc(C)cc3C)C4)n2)cc1F (centres undefined)
73 | 665 s | COCCOC1CCN(C(=O)c2cccs2)CC1

Row | RP-LC retention time | Compound
74 | 885 s | Cc1ccc(S(=O)(=O)N2CCC(CCNC(=O)NC(C)(C)C)CC2)cc1
75 | 655 s | CN1CCCn2cc(S(=O)(=O)Nc3ccc4c(c3)OCCO4)cc2C1=O
76 | 982 s | CC1CCN(C(=O)CN2c3ccc(F)cc3-c3ccccc3S2(=O)=O)CC1
77 | 868 s | Cc1c(C)n(-c2ccc(Cl)cc2)c2ncn(CC(=O)NCc3ccco3)c(=O)c12
78 | 637 s | COc1ccc(Nc2nc(N3CCN(CCO)CC3)nc3c2C(=O)CCC3)cc1
79 | 637 s | COCc1noc(C2CN(C(=O)c3cn[nH]c3)CC23CCCC3)n1 (centres undefined)
80 | 683 s | Cc1ccc(C(CNC(=O)c2cc(-c3ccccc3)on2)N(C)C)o1 (centres undefined)
81 | 583 s | CC1CCCCN1C(=O)Cn1c(CCO)nc2ccccc21 (centres undefined)
82 | 648 s | O=C(CSc1nnc(NC(=O)c2ccc(Br)o2)s1)NCC1CCCO1 (centres undefined)
83 | 674 s | COC(=O)c1ccc(NC(=O)N2CCC3(CC2)N(CC2CC2)C(=O)CS3=O)cc1 (centres undefined)
84 | 1080 s | Cc1ccc(NC(=O)c2cn(C)nc2S(=O)(=O)N2CCSCC2)cc1Cl
85 | 689 s | COc1ccc(-n2c(CN3CCN(C(=O)Nc4cc(F)ccc4F)CC3)nc3cccnc32)cc1
86 | 740 s | CCOc1ccc(NC(=O)C2(C)Oc3cccnc3NC2=O)cc1 (centres undefined)
87 | 856 s | Cn1nc(C(=O)NCc2ccc3c(c2)OCO3)c2c1CCN(C(=O)COc1ccc(Cl)cc1)C2
88 | 664 s | Cc1ccc(CN2CCN(CC(=O)Nc3ccc(C)cn3)C(=O)C2=O)cc1
89 | 864 s | CCN(Cc1cn(C)nc1C)C(=O)c1cc2c(=O)n(CC(C)C)c3ccccc3n2n1
